In ChEMBL document CHEMBL2311314 (J Med Chem, 2013):
pIC50: −log10 of the molar value. Converted amounts (≈) assume the structure as drawn. The source made the active and inactive calls. No cut-off for these calls is given here.

How the values were obtained:
[1] = target: Replicase polyprotein 1a (Severe acute respiratory syndrome-related coronavirus) (UniProt P0C6U8); assay: Inhibition of SARS-CoV 3CLpro expressed in Escherichia coli BL21 (DE3) at 100 uM by FRET assay in presence of 0.01% Triton X-100
[2] = target: Replicase polyprotein 1a (Severe acute respiratory syndrome-related coronavirus) (UniProt P0C6U8); assay: (§1) Inhibition of SARS-CoV 3CLpro expressed in Escherichia coli BL21 (DE3) by FRET assay
Replicase polyprotein 1a [3] = target: T1, Replicase polyprotein 1a (Severe acute respiratory syndrome-related coronavirus, UniProt P0C6U8); assay: as §1
[4] = Aqueous solubility of the compound in PBS buffer at pH 7.4 after 4 hrs by HPLC with UV detection analysis; format: physicochemical
[5] = Inhibition of SARS-CoV PL-pro after 10 mins by luminescence assay; set-up: species or system Severe acute respiratory syndrome-related coronavirus
[6] = Ratio of EC50 for SARS-CoV infected in african green monkey Vero E6 cells to Ki for SARS-CoV 3CLpro; set-up: species or system Severe acute respiratory syndrome-related coronavirus
Human coronavirus HKU1 [7] = assay: Inhibition of human coronavirus HKU1 3CLpro expressed in Escherichia coli BL21 (DE3) at 100 uM by FRET assay in presence of 0.01% Triton X-100
Murine coronavirus [8] = assay: Inhibition of mouse coronavirus 3CLpro expressed in Escherichia coli BL21 (DE3) at 100 uM by FRET assay in absence of 0.01% Triton X-100
[9] = target: Replicase polyprotein 1a (Severe acute respiratory syndrome-related coronavirus) (UniProt P0C6U8); assay: Inhibition of SARS-CoV 3CLpro expressed in Escherichia coli BL21 (DE3) at 100 uM by FRET assay in absence of 0.01% Triton X-100
[10] = Cytotoxicity against african green monkey Vero E6 cells assessed as cell death at […] after 48 hrs by CellTiter-Glo luminescent cell viability assay; format: cell-based; conditions: chlorocebus sabaeus
[11] = Cytotoxicity against african green monkey Vero E6 cells after 48 hrs by CellTiter-Glo luminescent cell viability assay; format: cell-based; conditions: chlorocebus sabaeus
Murine coronavirus [12] = assay: Inhibition of mouse coronavirus 3CLpro expressed in Escherichia coli BL21 (DE3) at 100 uM by FRET assay in presence of 0.01% Triton X-100
Human coronavirus HKU1 [13] = assay: Inhibition of human coronavirus HKU1 3CLpro expressed in Escherichia coli BL21 (DE3) at 100 uM by FRET assay in absence of 0.01% Triton X-100
Replicase polyprotein 1a [14] = target: T1, Replicase polyprotein 1a; assay: Inhibition of SARS-CoV 3CLpro expressed in Escherichia coli BL21 (DE3) after 2 hrs by FRET assay

| SMILES | inhibition [1] | also measured |
| --- | --- | --- |
| COc1ccc(C(=O)N(c2ccc(C(C)(C)C)cc2)C(C(=O)NC(C)(C)C)c2cccnc2)cc1 (stereo not drawn) | > 49% | – |
| CC(C)(C)NC(=O)C(c1cccnc1)N(C(=O)Cc1cnc[nH]1)c1ccc(C(C)(C)C)cc1 (stereo not drawn) | > 49% | – |
| CC(C)(C)NC(=O)C(c1ccsc1)N(C(=O)c1ccco1)c1ccc(C(C)(C)C)cc1 (stereo not drawn) | 11% | inhibition [2]: inactive |
| CC(C)(C)NC(=O)C(c1cccnc1)N(C(=O)c1cnco1)c1ccc(C(C)(C)C)cc1 (stereo not drawn) | > 49% | pIC50 (Replicase polyprotein 1a [3]): 4.41 |
| CC(C)(C)NC(=O)[C@@H](c1cccnc1)N(C(=O)c1ccco1)c1ccc(C(C)(C)C)cc1 | – | solubility at 4 h [4]: 219 µM (≈ 94.9 µg/mL) |
| Cn1cnc(C(=O)N(c2ccc(C(C)(C)C)cc2)C(C(=O)NC(C)(C)C)c2cccnc2)c1 (stereo not drawn) | > 49% | pIC50 (Replicase polyprotein 1a [3]): 4.12 |
| CC(C)(C)NC(=O)C(c1c[nH]cn1)N(C(=O)c1ccco1)c1ccc(C(C)(C)C)cc1 (stereo not drawn) | 23% | – |
| Cc1ccoc1C(=O)N(c1ccc(C(C)(C)C)cc1)C(C(=O)NC(C)(C)C)c1cccnc1 (stereo not drawn) | 53% | – |
| COc1ccccc1C(=O)N(c1ccc(C(C)(C)C)cc1)C(C(=O)NC(C)(C)C)c1cccnc1 (stereo not drawn) | > 49% | – |
| CC(C)(C)NC(=O)C(c1ccnnc1)N(C(=O)c1ccco1)c1ccc(C(C)(C)C)cc1 (stereo not drawn) | – | pIC50 (Replicase polyprotein 1a [3]): 5.00 |
| CC(C)(C)NC(=O)C(c1cccnc1)N(C(=O)c1cc[nH]n1)c1ccc(C(C)(C)C)cc1 (stereo not drawn) | 56% | – |
| COc1cccc(C(=O)N(c2ccc(C(C)(C)C)cc2)C(C(=O)NC(C)(C)C)c2cccnc2)c1 (stereo not drawn) | > 49% | – |
| Cc1ccc(C(=O)N(c2ccc(C(C)(C)C)cc2)C(C(=O)NC(C)(C)C)c2cccnc2)o1 (stereo not drawn) | 55% | – |
| CC(C)(C)NC(=O)C(c1cccnc1)N(C(=O)Cc1ccccc1)c1ccc(C(C)(C)C)cc1 (stereo not drawn) | > 49% | – |
| CC(C)(C)NC(=O)C(c1cccnc1)N(C(=O)c1ccc[nH]1)c1ccc(C(C)(C)C)cc1 (stereo not drawn) | > 49% | – |
| CC(C)(C)NC(=O)C(c1cccnc1)N(C(=O)c1cccc(O)c1)c1ccc(C(C)(C)C)cc1 (stereo not drawn) | > 49% | – |
| CC(C)(C)NC(=O)C(c1c[nH]nn1)N(C(=O)c1ccco1)c1ccc(C(C)(C)C)cc1 (stereo not drawn) | 23% | – |
| O=C(Oc1cncc(Br)c1)c1cccs1 | – | pIC50 (Replicase polyprotein 1a [3]): 6.30 |
| CC(C)(C)NC(=O)C(c1cccnc1)N(C(=O)c1ccc(Cl)o1)c1ccc(C(C)(C)C)cc1 (stereo not drawn) | > 49% | pIC50 (Replicase polyprotein 1a [3]): 5.28 |
| CC(C)(C)NC(=O)C(c1cccnc1)N(C(=O)c1ncc[nH]1)c1ccc(C(C)(C)C)cc1 (stereo not drawn) | 49% | – |
| CC(C)(C)NC(=O)C(c1cccnc1)N(C(=O)c1ccc(F)cc1)c1ccc(C(C)(C)C)cc1 (stereo not drawn) | > 49% | – |
| CC(C)(C)NC(=O)C(c1cccnc1)N(C(=O)c1cccnc1)c1ccc(C(C)(C)C)cc1 (stereo not drawn) | > 49% | – |
| CC(C)(C)NC(=O)C(c1cccnc1)N(C(=O)c1ncco1)c1ccc(C(C)(C)C)cc1 (stereo not drawn) | > 49% | pIC50 (Replicase polyprotein 1a [3]): 4.33 |
| CCC(C)c1ccc(N(C(=O)c2ccco2)C(C(=O)NC2CCCC2)c2cccnc2)cc1 (stereo not drawn) | – | pIC50 (Replicase polyprotein 1a [3]): 5.66; pIC50 [5]: 4.47 |
| CC(C)(C)NC(=O)C(c1cccnc1)N(C(=O)c1ncccn1)c1ccc(C(C)(C)C)cc1 (stereo not drawn) | > 49% | – |
| CC(C)(C)NC(=O)C(c1cc[nH]n1)N(C(=O)c1ccco1)c1ccc(C(C)(C)C)cc1 (stereo not drawn) | < 15% | – |

| SMILES | inhibition [1] | also measured |
| --- | --- | --- |
| CC(C)(C)NC(=O)C(c1cccnc1)N(C(=O)c1ccncc1)c1ccc(C(C)(C)C)cc1 (stereo not drawn) | > 49% | – |
| CC(C)(C)NC(=O)C(c1cn[nH]c1)N(C(=O)c1ccco1)c1ccc(C(C)(C)C)cc1 (stereo not drawn) | 16% | – |
| CC(C)(C)NC(=O)C(c1cccnc1)N(C(=O)c1cn[nH]c1)c1ccc(C(C)(C)C)cc1 (stereo not drawn) | > 49% | – |
| CC(C)CC(=O)N(c1ccc(C(C)(C)C)cc1)C(C(=O)NC(C)(C)C)c1cccnc1 (stereo not drawn) | > 49% | – |
| CC[C@H](NC(=O)[C@@H](NC(=O)OCc1ccccc1)[C@@H](C)OC(C)(C)C)C(=O)N[C@H](C=O)C[C@@H]1CCNC1=O | – | Ratio [6]: 11.5 |
| CC(C)c1ccc(N(C(=O)c2ccco2)C(C(=O)NC(C)(C)C)c2cccnc2)cc1 (stereo not drawn) | – | pIC50 (Replicase polyprotein 1a [3]): 4.55 |
| C=C(Cc1cccc(C)c1)C1=CC=C(c2ccc(C)cc2)C1 | – | pIC50 (Replicase polyprotein 1a [3]): 4.89 |
| CC(C)(C)NC(=O)C(c1cnccn1)N(C(=O)c1ccco1)c1ccc(C(C)(C)C)cc1 (stereo not drawn) | – | pIC50 (Replicase polyprotein 1a [3]): 5.26 |
| CC(C)(C)NC(=O)C(c1cccnc1)N(C(=O)c1ccccc1O)c1ccc(C(C)(C)C)cc1 (stereo not drawn) | > 49% | – |
| Cc1ccc(C(C(=O)NC(C)(C)C)N(C(=O)c2ccco2)c2ccc(C(C)(C)C)cc2)cn1 (stereo not drawn) | < 15% | – |
| CC(C)(C)NC(=O)C(c1ccccn1)N(C(=O)c1ccco1)c1ccc(C(C)(C)C)cc1 (stereo not drawn) | < 15% | – |
| CC(C)(C)NC(=O)C(c1cccnc1)N(C(=O)c1ccc(O)cc1)c1ccc(C(C)(C)C)cc1 (stereo not drawn) | > 49% | – |
| CC(C)(C)NC(=O)C(c1ccncc1)N(C(=O)c1ccco1)c1ccc(C(C)(C)C)cc1 (stereo not drawn) | – | pIC50 (Replicase polyprotein 1a [3]): 4.35 |
| CC(C)(C)NC(=O)C(c1cccnc1)N(C(=O)c1ccco1)c1ccc(F)cc1 (stereo not drawn) | – | inhibition [2]: inactive |
| CC(C)(C)NC(=O)C(c1cccnc1)N(C(=O)C1=NC=NC1)c1ccc(C(C)(C)C)cc1 (stereo not drawn) | > 49% | pIC50 (Replicase polyprotein 1a [3]): 5.22 |
| CN(C)CCCSc1ccccc1NC(=O)/C=C/c1ccccc1 [CINANSERIN] | inactive | inhibition (Human coronavirus HKU1 [7]): inactive; inhibition (Murine coronavirus [8]): inactive; inhibition [9]: inactive; Activity [10]: > 90%; CC50 at 48 h [11]: 31 µM; CC90 at 48 h [11]: 66 µM; inhibition (Murine coronavirus [12]): inactive; inhibition (Human coronavirus HKU1 [13]): inactive; pIC50 (Replicase polyprotein 1a [14]): 5.30 |
| CC(C)(C)NC(=O)C(c1cccnc1)N(C(=O)c1ccccn1)c1ccc(C(C)(C)C)cc1 (stereo not drawn) | > 49% | – |
| CC(C)(C)NC(=O)C(c1cccnc1)N(C(=O)C1CCCO1)c1ccc(C(C)(C)C)cc1 (stereo not drawn) | > 49% | – |
| COCC(=O)N(c1ccc(C(C)(C)C)cc1)C(C(=O)NC(C)(C)C)c1cccnc1 (stereo not drawn) | > 49% | – |
| CC(C)(C)NC(=O)C(c1cccnc1)N(C(=O)c1ccco1)C1CC1 (stereo not drawn) | – | inhibition [2]: inactive |
| CC(C)(C)NC(=O)C(c1cccnc1)N(C(=O)CC(F)(F)F)c1ccc(C(C)(C)C)cc1 (stereo not drawn) | 57% | – |
| CC(C)(C)NC(=O)C(c1cccnc1)N(C(=O)c1cccs1)c1ccc(C(C)(C)C)cc1 (stereo not drawn) | > 49% | pIC50 (Replicase polyprotein 1a [3]): 4.30 |
| CC(C)(C)NC(=O)C(c1cccnc1)N(C(=O)CO)c1ccc(C(C)(C)C)cc1 (stereo not drawn) | > 49% | – |
| CC(C)(C)NC(=O)C(c1cccnc1)N(C(=O)c1ccc(Cl)cc1)c1ccc(C(C)(C)C)cc1 (stereo not drawn) | > 49% | – |
| CCN(CC)c1ccc(C(=O)On2nnc3ccccc32)cc1 | – | pIC50 (Replicase polyprotein 1a [3]): 4.95 |
